Literature values in patent US6511993B1, “Metalloprotease inhibitors” (priority 1999, dated 2003).

Test system: human ovarian carcinoma xenografts
Conditions: mice carrying human ovarian carcinoma xenografts; Cancer Res., 1993, 53, 2087; cited from earlier work

Q: Which survival does the source give for `CNC(=O)[C@H](Cc1ccccc1)NC(=O)[C@H](CC(C)C)[C@H](CSc1cccs1)C(=O)NO` [BB-94] here?
A: prolong the survival

Q: And the tumour burden?
A: decrease the tumour burden
